Assay results taken from ChEMBL document CHEMBL4145505, “Rational design, chemical synthesis and biological evaluation of novel biguanides exploring species-specificity responsiveness of TAAR1 agonists” (Eur J Med Chem, 2018).

What was measured:
[1] = target: T1, Trace amine-associated receptor 5 (Mus musculus, UniProt Q5QD14); assay: Agonist activity at mouse TAAR5 expressed in HEK293 cells assessed as cAMP accumulation after 20 mins by BRET assay; format: functional, cell-based
T1 sequence (Q5QD14 whole entry): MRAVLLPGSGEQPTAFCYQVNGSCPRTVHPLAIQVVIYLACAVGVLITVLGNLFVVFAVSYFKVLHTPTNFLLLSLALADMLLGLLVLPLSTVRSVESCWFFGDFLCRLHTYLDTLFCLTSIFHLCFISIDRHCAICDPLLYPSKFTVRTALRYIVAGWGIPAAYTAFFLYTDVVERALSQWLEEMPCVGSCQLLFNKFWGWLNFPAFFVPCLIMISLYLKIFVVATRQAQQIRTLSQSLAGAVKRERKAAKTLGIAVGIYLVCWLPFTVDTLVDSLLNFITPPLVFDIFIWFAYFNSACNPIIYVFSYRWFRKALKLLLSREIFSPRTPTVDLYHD

[2] = target: Trace amine-associated receptor 1 (Mus musculus, UniProt Q923Y8); assay: Agonist activity at mouse TAAR1 expressed in HEK293 cells assessed as cAMP accumulation after 20 mins by BRET assay; format: functional, cell-based
Chain of Trace amine-associated receptor 1 (Mus musculus, UniProt Q923Y8) (Q923Y8 whole entry): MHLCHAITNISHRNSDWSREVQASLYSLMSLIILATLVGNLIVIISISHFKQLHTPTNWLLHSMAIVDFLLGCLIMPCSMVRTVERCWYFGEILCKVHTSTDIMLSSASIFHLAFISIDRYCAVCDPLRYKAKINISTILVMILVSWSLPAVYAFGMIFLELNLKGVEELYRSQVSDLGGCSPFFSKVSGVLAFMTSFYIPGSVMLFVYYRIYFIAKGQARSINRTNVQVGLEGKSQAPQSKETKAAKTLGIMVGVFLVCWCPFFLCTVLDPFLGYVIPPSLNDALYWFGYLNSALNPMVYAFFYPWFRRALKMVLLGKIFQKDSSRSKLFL

[3] = target: Trace amine-associated receptor 1 (Mus musculus) (UniProt Q923Y8); assay: Agonist activity at mouse TAAR1 expressed in HEK293 cells assessed as cAMP accumulation at 10 uM after 20 mins by BRET assay relative to beta-PEA; format: functional, cell-based
Chain of Trace amine-associated receptor 1 (Mus musculus) (Q923Y8 whole entry): as above

[4] = target: T2, Trace amine-associated receptor 1 (Homo sapiens, UniProt Q96RJ0); assay: Agonist activity at human TAAR1 expressed in HEK293 cells assessed as cAMP accumulation after 20 mins by BRET assay; format: functional, cell-based
T2 sequence (Q96RJ0 whole entry): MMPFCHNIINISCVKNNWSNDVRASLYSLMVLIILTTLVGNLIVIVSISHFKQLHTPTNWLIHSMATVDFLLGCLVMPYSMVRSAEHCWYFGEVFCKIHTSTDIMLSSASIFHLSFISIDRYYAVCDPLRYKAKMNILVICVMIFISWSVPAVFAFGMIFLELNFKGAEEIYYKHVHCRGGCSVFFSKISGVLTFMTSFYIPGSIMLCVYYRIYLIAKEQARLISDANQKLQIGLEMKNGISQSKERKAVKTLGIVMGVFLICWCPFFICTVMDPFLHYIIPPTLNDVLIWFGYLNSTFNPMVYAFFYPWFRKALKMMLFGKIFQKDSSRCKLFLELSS

[5] = target: T3, Trace amine-associated receptor 1 (Homo sapiens) (UniProt Q96RJ0); assay: Agonist activity at human TAAR1 expressed in HEK293 cells assessed as cAMP accumulation at 10 uM after 20 mins by BRET assay relative to beta-PEA; format: functional, cell-based
T3 sequence (whole entry): T2 sequence (Q96RJ0 whole entry)

[6] = Selectivity ratio of EC50 for mouse TAAR1 to EC50 for human TAAR1

SMILES | EC50 [1] | EC50 [2] | also measured
N=C(N)/N=C(\N)N1CCN(c2cccc(Cl)c2)CC1 | > 10 µM | – | –
NCCc1ccccc1 [PHENETHYLAMINE] | – | 0.12 µM | –
COc1cccc(N2CCN(/C(N)=N/C(=N)N)CC2)c1 | > 10 µM | – | –
N=C(N)/N=C(\N)N1CCN(c2ccc(Cl)cc2)CC1 | > 10 µM | – | –
N=C(N)/N=C(\N)N1CCN(c2ncccn2)CC1 | > 10 µM | 9 µM | Activity [3]: 40%
N=C(N)/N=C(\N)N1CCN(c2ccccn2)CC1 | > 10 µM | – | –
N=C(N)/N=C(\N)N1CCN(c2cccc(C(F)(F)F)c2)CC1 | > 10 µM | – | –
N=C(N)NC(=N)N1CCN(c2ccccc2)CC1 | > 10 µM | 2.38 µM | EC50 [4]: 1.38 µM; Activity [3]: 46%; Activity [5]: 81%; Ratio EC50 [6]: 1.7
COc1ccccc1N1CCN(/C(N)=N/C(=N)N)CC1 | > 10 µM | – | –
N=C(N)/N=C(\N)N1CCN(c2ccccc2Cl)CC1 | > 10 µM | 2.66 µM | Activity [3]: 57%
COc1ccc(N2CCN(/C(N)=N/C(=N)N)CC2)cc1 | > 10 µM | – | EC50 [4]: 11.4 µM; Activity [5]: 110%
